Measurements reported in patent US20170226139A1, “CRYSTALLINE SALTS OF (Z)-O-OCTADEC-9-EN-1-YL O,O-DIHYDROGEN PHOSPHOROTHIOATE” (priority 2013, published 2017).
Marks after values point to notes of the source that are not given here.

Columns and labels:
Human LPA2 = Human LPA2 (Homo sapiens, UniProt Q9HBW0); experiment: Competition binding assay, displacement of [3H]LPA from membranes of transfected HEK293 cells; design: expressed in transfected cells; host or cells: HEK293 (crude membrane fraction); conditions: 20 nM [3H]LPA; membranes of HEK293 cells transfected with human LPA2
Human LPA2, sequence (Q9HBW0 whole entry): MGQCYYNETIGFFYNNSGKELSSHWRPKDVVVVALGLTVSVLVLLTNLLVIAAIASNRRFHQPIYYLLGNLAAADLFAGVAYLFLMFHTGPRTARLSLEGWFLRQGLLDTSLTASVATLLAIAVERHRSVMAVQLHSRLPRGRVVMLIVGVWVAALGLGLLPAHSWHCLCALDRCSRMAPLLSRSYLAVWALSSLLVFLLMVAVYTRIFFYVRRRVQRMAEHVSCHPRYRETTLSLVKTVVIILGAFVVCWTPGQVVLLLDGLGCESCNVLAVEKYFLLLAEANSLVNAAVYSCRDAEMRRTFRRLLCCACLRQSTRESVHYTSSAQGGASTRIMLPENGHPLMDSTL
Description: A further study was performed to evaluate whether Rx100 displaces lysophosphatidic acid bound to its receptor. HEK293 cells were transfected with human LPA2 receptor.

[1] = test system: C57BL/6 murine Animal Model of GI-ARS; experiment: Survival after partial body irradiation (tibial sparing), murine Animal Model of GI-ARS (Studies 4.1.4, 4.1.5, 4.1.8); assay type: in vivo, C57BL/6 mice; conditions: for Survival Day 10, Rx100 arm (survivors/animals) / Survival Day ≧30, Rx100 arm (survivors/animals) / Survival Advantage Day 10 / Survival Advantage Day ≧30: Murine (♀), start +24; for Survival Advantage Day 10 / Survival Advantage Day ≧30 / Survival advantage 0.3 mg/kg / Survival advantage 3 mg/kg / Survival advantage: vs vehicle; for Survival, 0.3 mg/kg / Survival, 3 mg/kg / Survival advantage 0.3 mg/kg / Survival advantage 3 mg/kg: Study 4.1.4, Phase 2 + 3; for Survival, 0.3 mg/kg / Survival, 3 mg/kg: q12 h × 6 from 24 h after PBI; for Survival advantage / Survival, Rx100 at 3 mg/kg/12 × 6: Study 4.1.8, Phase 1 + 2, female C57BL/6; for Survival advantage: 3 mg/kg/12 h × 6
Description: These Animal Model studies were all conducted using partial body irradiation (PBI) with tibial bone marrow sparing except the earliest study which was performed with Total Abdominal Irradiation (TAI). The male Rhesus macaque model was developed by MacVittie. The female inbred murine PBI GI-ARS Animal Model was developed by the inventors. […] Differences in radiation sensitivity by gender in rodent species are well appreciated. We are not aware of PBI GI-ARS models other than these that meet criteria required to conduct a prospective, blinded, controlled, randomized study of efficacy.
A synopsis from each of the completed three sequential efficacy studies in the C57BL/6 murine partial body irradiation model of GI-ARS is provided below. […] Study WBS 4.1.8 was a pilot study of the efficacy of Rx100 at the preferred dose and regimen. The latter two studies (4.1.5) and 4.1.8) were blinded, randomized and controlled. The former study was not blinded but was controlled and randomized (WBS 4.1.4).
Study was initiated on Feb. […] Experiments were started on Feb.
Phase 1 (n=32 per group per sex) was designed as an expanded pilot dose-ranging study (0.3, 1.0, 3.0, and 10 mg/kg) to select two Rx100 doses for additional testing in phases 2 and 3. Phases 2 and 3 (enrolled n=64 per group per gender) were conducted at the selected Rx100 doses (0.3 and 3.0 mg/kg) to ensure sufficient sample size to power an assessment of survival advantage. The latter study was conducted in two phases based on facility limitations (up to 120 animals can be handled readily in one radiation sequence). […] A higher radiation dose was used in Phases 2 and 3 and two intermediate doses selected empirically (0.3 and 3.0 mg/kg). The study was carried out to 30 days post irradiation in all phases. The primary endpoint in this study was survival at Day 10. The modified intent-to-treat primary study population was defined as those animals that survived anesthesia following irradiation. Survival advantage was calculated as the percent survival in the active arm minus the percent survival in the vehicle arm for males and females separately with pairwise comparison by Chi-Square as a test of significance without adjustment for multiple testing. Significance was declared at the 0.05 level (two-sided). […] See Kaplan-Meier FIG. 32.
The study was initiated on Apr. […] Experiments were started on Apr.
Under the study design, four radiation doses were selected for vehicle administration. […] The study was performed in female mice only. […] Animals were randomized but stratified by weight to assure equivalent weights in each arm. The study was conducted in two phases to assure adequate subject numbers based on limitations on the number of animals that can be processed per phase (120). The primary endpoint in this study was survival at Day 10 but the study was carried out to Day 30.

[2] = Rx Bio 415, 3 mg/kg (q12 × 6), 15.62-64 Gy
[3] = RxBio 414, 0.3 mg/kg (q12 × 6), 15.65-8 Gy
[4] = RxBio 414, 3 mg/kg (q12 × 6), 15.65-8 Gy
[5] = RxBio 418F, 3 mg/kg (q12 × 6), 15.55-67 Gy (pooled)
[6] = RxBio 418F, 3 mg/kg (q12 × 6), 15.55 Gy
[7] = RxBio 418F, 3 mg/kg (q12 × 6), 15.62 Gy
[8] = RxBio 418F, 3 mg/kg (q12 × 6), 15.67 Gy
[9] = Study 4.1.5, female, 3 mg/kg q12 h×6 starting 24 hours after PBI

For `CCCCCCCC/C=C\CCCCCCCCOP(O)(O)=S` [Rx100, (Z)—O-octadec-9-en-1-yl O,O-dihydrogen phosphorothioate], the “displacement of 3H-LPA” value (Human LPA2) was “displaced 3H-LPA in a concentration-dependent manner”, the “Survival Day 10, Rx100 arm (survivors/animals)” value [1, 2] was 18/32 and the “Survival Day ≧30, Rx100 arm (survivors/animals)” value [1, 2] was 9/32. The “Survival Advantage Day 10” value [1, 2] was 50%, the “Survival Advantage Day ≧30” value [1, 2] was 28% and the “Survival Day 10, Rx100 arm (survivors/animals)” value [1, 3] was 29/60. The “Survival Day ≧30, Rx100 arm (survivors/animals)” value [1, 3] was 20/60, the “Survival Advantage Day 10” value [1, 3] was 5% and the “Survival Advantage Day ≧30” value [1, 3] was 23%. The “Survival Day 10, Rx100 arm (survivors/animals)” value [1, 4] was 41/64, the “Survival Day ≧30, Rx100 arm (survivors/animals)” value [1, 4] was 23/64 and the “Survival Advantage Day 10” value [1, 4] was 23%. The “Survival Advantage Day ≧30” value [1, 4] was 26%, the “Survival Day 10, Rx100 arm (survivors/animals)” value [1, 5] was 52/105 and the “Survival Day ≧30, Rx100 arm (survivors/animals)” value [1, 5] was 42/105. For the same molecule, the “Survival Advantage Day 10” value [1, 5] was 32%, the “Survival Advantage Day ≧30” value [1, 5] was 25% and the “Survival Day 10, Rx100 arm (survivors/animals)” value [1, 6] was 16/34. The “Survival Day ≧30, Rx100 arm (survivors/animals)” value [1, 6] was 13/34, the “Survival Advantage Day 10” value [1, 6] was 25% and the “Survival Advantage Day ≧30” value [1, 6] was 22%. For the same molecule, the “Survival Day 10, Rx100 arm (survivors/animals)” value [1, 7] was 21/36, the “Survival Day ≧30, Rx100 arm (survivors/animals)” value [1, 7] was 17/36 and the “Survival Advantage Day 10” value [1, 7] was 47%. For the same molecule, the “Survival Advantage Day ≧30” value [1, 7] was 39%, the “Survival Day 10, Rx100 arm (survivors/animals)” value [1, 8] was 15/35 and the “Survival Day ≧30, Rx100 arm (survivors/animals)” value [1, 8] was 12/35. For the same molecule, the “Survival Advantage Day 10” value [1, 8] was 23%, the “Survival Advantage Day ≧30” value [1, 8] was 14% and the “Survival, 0.3 mg/kg” value ([1]; Females, Day 10) was 48.3% (29/60). The “Survival, 3 mg/kg” value ([1]; Females, Day 10) was 64.1% (41/64), the “Survival advantage 0.3 mg/kg” value ([1]; Females, Day 10) was 7.3% and the “Survival advantage 3 mg/kg” value ([1]; Females, Day 10) was 23.1%*. The “Survival, 0.3 mg/kg” value ([1]; Females, Day 30) was 33.3% (20/60), the “Survival, 3 mg/kg” value ([1]; Females, Day 30) was 35.9% (23/41) and the “Survival advantage 0.3 mg/kg” value ([1]; Females, Day 30) was 23.5%*. For the same molecule, the “Survival advantage 3 mg/kg” value ([1]; Females, Day 30) was 26.1%*, the “Survival, 0.3 mg/kg” value ([1]; Males, Day 10) was 38.2% (21/55) and the “Survival, 3 mg/kg” value ([1]; Males, Day 10) was 41.4% (24/58). For the same molecule, the “Survival advantage 0.3 mg/kg” value ([1]; Males, Day 10) was −2.2%, the “Survival advantage 3 mg/kg” value ([1]; Males, Day 10) was 1.0% and the “Survival, 0.3 mg/kg” value ([1]; Males, Day 30) was 12.7% (7/55). For the same molecule, the “Survival, 3 mg/kg” value ([1]; Males, Day 30) was 17.2% (10/58), the “Survival advantage 0.3 mg/kg” value ([1]; Males, Day 30) was −17.1% and the “Survival advantage 3 mg/kg” value ([1]; Males, Day 30) was 12.6%. For the same molecule, the “increase in survival at Day 10” value ([1]; Study 4.1.4, female, 0.3 mg/kg/12 h/6, not statistically significant) was 7.3%, the “survival advantage at Day 10” value ([1]; Study 4.1.4, female, 3 mg/kg/12 h×6 starting 24 hours after PBI, statistically significant) was 23.1% and the “survival benefit by Day 30” value ([1]; Study 4.1.4, female, both 0.3 mg/kg and 3 mg/kg) was “a benefit was seen”. The “survival benefit in male animals” value ([1]; Study 4.1.4, male) was “no survival benefit”, the “survival advantage at Day 10” value [1, 9] was 50% and the “survival advantage through Day 30” value [1, 9] was 28%. The “efficacy with delayed start of dosing” value ([1]; Study 4.1.5, female, dosing started ≧48 hours after radiation) was “Efficacy was not seen”, the “efficacy and toxicity in male mice” value ([1]; Study 4.1.5, male, 3 mg/kg q12 h×6) was “neither efficacy nor toxicity was seen” and the Survival advantage ([1]; 15.55 Gy, Day 10) was 24.9%*. For the same molecule, the Survival advantage ([1]; 15.55 Gy, Day 30) was 21.5%*, the Survival advantage ([1]; 15.62 Gy, Day 10) was 47.2%* and the Survival advantage ([1]; 15.62 Gy, Day 30) was 38.9%*. The Survival advantage ([1]; 15.67 Gy, Day 10) was 22.9%*, the Survival advantage ([1]; 15.67 Gy, Day 30) was 14.3% and the “Survival, Rx100 at 3 mg/kg/12 × 6” value ([1]; 15.55 Gy, Day 10) was 47.1%. The “Survival, Rx100 at 3 mg/kg/12 × 6” value ([1]; 15.55 Gy, Day 30) was 38.2%, the “Survival, Rx100 at 3 mg/kg/12 × 6” value ([1]; 15.62 Gy, Day 10) was 58.3 and the “Survival, Rx100 at 3 mg/kg/12 × 6” value ([1]; 15.62 Gy, Day 30) was 47.2%. For the same molecule, the “Survival, Rx100 at 3 mg/kg/12 × 6” value ([1]; 15.67 Gy, Day 10) was 42.9%, the “Survival, Rx100 at 3 mg/kg/12 × 6” value ([1]; 15.67 Gy, Day 30) was 34.3% and the “survival advantage at Day 10 and Day 30” value ([1]; Study 4.1.8, female, 3 mg/kg q12 h×6 starting at 24 hours after PBI) was “clinically and statistically significant survival advantage”. For the same molecule, the “Day 10 survival” value ([1]; females, treatment administered starting at 24 hours after radiation) was 56.3% and the survival ([1]; male mice, comparable group) was 72%.
